Measured values from patent US8796249B2, “TGR5 modulators and methods of use thereof” (Intercept Pharmaceuticals, Inc., priority 2008, dated 2014).
Where two headings read alike, the source gives them in different places. Marks after values point to notes of the source that are not given here.

Tests used:
Water solubility = format: physicochemical; details: BA as protonated species, 0.1 M HCl, pH 1; hs = highly soluble, not evaluated
Experimental: Solid compound (BA) was suspended in 5 ml of 0.1 M HCl. […] The flow rate was 150 μl/min. The mass spectrometry acquisition was performed in the multiple reaction monitoring mode using the ESI source in negative ionization. Water solubility was expressed as μmol/liter.
The water solubility was measured for the insoluble protonated species of carboxylated bile acids at a pH 1.

[1] = ionized species; values from literature; cited from earlier work
[2] = […] NaCl water solution; values from literature; cited from earlier work
bovine serum albumin [3] = biological target: T1, bovine serum albumin (Bos taurus, UniProt P02769); details: values from literature; cited from earlier work
T1 construct: dissolved at a concentration of 100 μM in 5% bovine serum albumin-saline solution (pH 7.2); from tissue; host or cells: bovine serum (only from the protein's name)

HepG2 cell = HepG2 cell cytotoxicity, ATP decrease; format: cell-based
Experimental: Compounds of the invention were evaluated for cytotoxicity using standard methods known in the art. Specifically, cytotoxicity was evaluated using HEPG2 cells and monitoring ATP decrease and determining the EC50 value. […]

[4] = Previous study of oleanolic acid (OA) in animals; format: in vivo
Experimental: Therefore, OA is administered at the dose of 50 mg/kg/d in this study.

LXRα = biological target: T2, LXRα (Homo sapiens, UniProt Q13133); test: LXR coactivator recruitment (alphascreen); format: biochemical; details: ref standard T0901317
T2 sequence (Q13133 1-447): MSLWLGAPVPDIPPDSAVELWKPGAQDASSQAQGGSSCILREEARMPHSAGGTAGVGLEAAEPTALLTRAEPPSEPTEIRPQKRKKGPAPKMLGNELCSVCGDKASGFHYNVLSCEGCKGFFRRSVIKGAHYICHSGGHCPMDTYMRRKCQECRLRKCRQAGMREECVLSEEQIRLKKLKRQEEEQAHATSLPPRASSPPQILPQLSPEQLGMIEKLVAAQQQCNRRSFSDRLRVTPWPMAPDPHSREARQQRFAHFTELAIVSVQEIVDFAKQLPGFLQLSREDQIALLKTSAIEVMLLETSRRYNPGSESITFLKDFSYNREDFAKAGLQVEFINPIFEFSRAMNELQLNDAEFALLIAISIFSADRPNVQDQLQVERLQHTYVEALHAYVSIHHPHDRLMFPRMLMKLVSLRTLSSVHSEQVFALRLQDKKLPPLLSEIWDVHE
Experimental: (§1) The selectivity of compounds of the invention was evaluated using assay methods known in the art. Specifically, the following assay methods were used: • FXR and LXR: Coactivator Recruitment (alphascreen); • TGR5: cAMP level on human intestinal cell line (NCI-H716); • PXR: Ligands Competition assay (Binding Assay) • CAR: Coactivator Recruitment (Lanthascreen)

CAR = biological target: T3, CAR (Homo sapiens, UniProt Q14994); test: CAR coactivator recruitment (Lanthascreen); format: biochemical
T3 sequence (Q14994 1-352): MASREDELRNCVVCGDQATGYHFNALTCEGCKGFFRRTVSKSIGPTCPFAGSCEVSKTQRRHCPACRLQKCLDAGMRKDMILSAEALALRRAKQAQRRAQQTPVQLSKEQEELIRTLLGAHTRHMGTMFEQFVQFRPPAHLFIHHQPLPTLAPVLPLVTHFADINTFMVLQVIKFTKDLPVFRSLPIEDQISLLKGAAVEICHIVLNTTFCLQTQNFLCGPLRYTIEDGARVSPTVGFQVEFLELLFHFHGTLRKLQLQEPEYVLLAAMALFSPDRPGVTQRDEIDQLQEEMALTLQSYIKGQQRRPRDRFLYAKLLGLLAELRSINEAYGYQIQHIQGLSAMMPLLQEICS
Experimental: as §1

VDR = biological target: T4, VDR (Homo sapiens, UniProt P11473); test: NR selectivity assay VDR; details: unnamed ref standard 0.005 μM
T4 sequence (P11473 1-427): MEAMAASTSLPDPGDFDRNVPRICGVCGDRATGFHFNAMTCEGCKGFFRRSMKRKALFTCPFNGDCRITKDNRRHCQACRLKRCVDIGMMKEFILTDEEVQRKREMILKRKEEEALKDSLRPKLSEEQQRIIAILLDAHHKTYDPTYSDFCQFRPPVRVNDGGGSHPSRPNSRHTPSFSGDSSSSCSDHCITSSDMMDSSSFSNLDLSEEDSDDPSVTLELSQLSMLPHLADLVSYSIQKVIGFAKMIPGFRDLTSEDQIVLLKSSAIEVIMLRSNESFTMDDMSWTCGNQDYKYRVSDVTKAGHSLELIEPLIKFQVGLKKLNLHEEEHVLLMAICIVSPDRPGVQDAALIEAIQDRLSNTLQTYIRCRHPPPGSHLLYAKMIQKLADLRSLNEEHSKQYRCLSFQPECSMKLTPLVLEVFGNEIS

bovine serum albumin [5] = biological target: T1, bovine serum albumin; test: Albumin binding by equilibrium dialysis; format: in vitro ADME; details: 100 μM BA in 5% bovine serum albumin-saline, pH 7.2
Experimental: The extent of albumin binding was evaluated by equilibrium dialysis at a fixed BA-albumin ratio. BA was dissolved at a concentration of 100 μM in 5% bovine serum albumin-saline solution (pH 7.2) and left to stand for 24 h at 25° C. Two milliliters of this solution was dialyzed in cellulose sacs having a molecular weight cut-off of 12-14,000 against 25 ml of saline solution. The system was equilibrated by mechanical gently shaking for 72 h at 25° C. BA concentrations of the dialyzed solution (corresponding to the free unbound fraction) and of the starting solution were determined with HPLC-ESI-MS/MS in the same conditions of the previous analysis. The percent of albumin binding was calculate from the initial BA concentration and from the unbound concentration in the dialyzed fraction. All these compounds never less present an albumin binding compatible with a relatively fast hepatic uptake, similarly to natural occurring BA. Accordingly different kinetics (slower) of the liver uptake is expected.

Intestinal Bacteria = test: In vitro metabolic stability in human stool culture; details: human stool cultures
Experimental: Homogenized fresh human stools (500 mg) were transferred into sterile vials to which 5 mL of sterilized chopped meat-glucose medium (Scott Lab., Fiskville, R.I.) was added. BA were then added at a final concentration of 0.05 mM. Vials were incubated at 37° C.; then, at 0, 1, 2, 4, 8 and 24 h after the addition of the BA, the reaction was stopped with 150 μL of 30% KOH. The samples were centrifuged at 3500 rpm for 10 min; from the supernatant the BA were isolated by C-18 solid-phase extraction and analyzed by TLC and HPLC-ES-MS/MS.
Thin-layer chromatography (TLC), utilizing silica gel 0.25 mm thickness plates (Merck, Darmstat, Germany), was employed as the first screening test. The solvent system used for the separation of conjugated BA was composed of propionic acid/isoamyl acetate/water/N-propanol (3:4:1:2, v/v/v/v; solvent I), and that of the unconjugated BA was acetic acid/carbon tetrachloride/isopropyl ether/isoamyl acetate/water/N-propanol/benzene (1:4:6:8:2:2, v/v/v/v/v/v; solvent II).

PPARδ = biological target: T5, PPARδ (Homo sapiens, UniProt Q03181); test: NR selectivity assay PPARδ; details: unnamed ref standard 0.004 μM
T5 sequence (Q03181 1-441): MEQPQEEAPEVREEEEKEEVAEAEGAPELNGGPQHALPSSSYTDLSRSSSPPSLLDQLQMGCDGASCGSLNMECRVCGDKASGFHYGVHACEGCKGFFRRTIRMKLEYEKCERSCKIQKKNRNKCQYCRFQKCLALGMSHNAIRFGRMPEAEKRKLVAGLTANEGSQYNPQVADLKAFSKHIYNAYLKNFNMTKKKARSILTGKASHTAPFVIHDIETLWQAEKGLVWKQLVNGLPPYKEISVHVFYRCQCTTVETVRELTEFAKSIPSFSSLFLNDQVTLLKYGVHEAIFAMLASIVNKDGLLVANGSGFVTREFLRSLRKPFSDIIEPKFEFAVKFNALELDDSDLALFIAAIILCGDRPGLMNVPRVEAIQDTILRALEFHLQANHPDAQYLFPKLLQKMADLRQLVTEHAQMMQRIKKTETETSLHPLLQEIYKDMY

[6] = Critical micellar concentration by surface tension (maximum bubble-pressure method); format: physicochemical; details: […] NaCl water solution
Experimental: The critical micellar concentration (CMC) was determined by surface tension (ST) measurements using a maximum bubble-pressure method which give surface tension values slightly affected by potential impurities like static methods are. The tensiometer was a […] Research Corp., Milwaukee, Wis.) equipped with two glass probes of 0.5 and 4.0 mm diameters connected to a source of nitrogen. The bubble frequency was 1 bubble/second in distilled water at 26° C. (P=2.7 atm) and the calibration was made with double-distilled water and methanol. The surface tension of BA sodium salts solutions in NaCl 0.15 M was measured at various concentrations inside the 0.13-50 mM range. The surface tension values were plotted against the logarithm of the bile salt concentration; the regression lines corresponding to the two parts of the curve (monomeric and micellar phases) were calculated using the method of least squares, and the intersection of the lines was taken as the CMC value. From the ST vs concentration curves the value of the surface tension at the CMC (equilibrium between monomers and multimers species) was also calculated giving information about the detergency power which is related to the size of the micelles with associate surface tension lowering capacity. The CMC was evaluated by surface tension measurements in non equilibrium conditions i.e. in conditions that impurities slightly affect the surface tension results (FIG. 1).

[7] = 1-Octanol/water partition coefficient (shake-flask); format: physicochemical; details: ionized species, pH 8
Experimental: Since the sulphate and sulphonated analogues are always ionised at all pH values the octanol/water partition coefficient was measured for all molecules in ionized form. 1-Octanol/water partition coefficient (log P) was evaluated using a conventional shake-flask procedure. […] The aqueous buffer was previously pre-saturated with 1-octanol, 5 ml of 1-octanol pre-saturated with water was then added and the samples were left to equilibrate for 2 weeks under continuous stirring at room temperature After centrifugation the two phases were carefully separated. BA concentration in the water phase was measured with HPLC-ESI ? MS/MS using C18 column (150 mm×2 mm i.d., 4 μm) and, as mobile phases, water containing 15 mM acetic acid pH 5 and acetonitrile. The flow rate was 150 μal/min and the column was maintained at 45° C. The mass spectrometry acquisition was performed in the multiple reaction monitoring mode using the ESI source in negative ionization.

[8] = coactivator recruitment (Lanthascreen), ref standard CITCO

T1 sequence (P02769 25-607): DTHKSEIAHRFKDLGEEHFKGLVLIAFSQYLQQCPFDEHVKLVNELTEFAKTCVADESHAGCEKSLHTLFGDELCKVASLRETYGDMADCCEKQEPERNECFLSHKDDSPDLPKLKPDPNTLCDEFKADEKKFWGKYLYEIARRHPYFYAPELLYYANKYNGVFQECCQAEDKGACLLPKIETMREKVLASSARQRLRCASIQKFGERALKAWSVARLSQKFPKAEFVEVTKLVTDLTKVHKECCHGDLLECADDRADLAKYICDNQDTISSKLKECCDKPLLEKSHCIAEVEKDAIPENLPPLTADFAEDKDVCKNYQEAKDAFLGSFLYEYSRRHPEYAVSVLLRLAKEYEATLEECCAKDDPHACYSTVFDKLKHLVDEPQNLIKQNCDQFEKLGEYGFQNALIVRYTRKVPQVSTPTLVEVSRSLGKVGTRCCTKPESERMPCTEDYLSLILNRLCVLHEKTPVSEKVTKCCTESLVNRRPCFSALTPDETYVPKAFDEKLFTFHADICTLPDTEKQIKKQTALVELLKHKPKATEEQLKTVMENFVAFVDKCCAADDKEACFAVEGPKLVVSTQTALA

C[C@H](CCC(=O)NCCS(=O)(=O)O)[C@H]1CC[C@H]2[C@@H]3[C@@H](O)C[C@@H]4C[C@H](O)CC[C@]4(C)[C@H]3CC[C@]12C [TUDCA]
Ws (water solubility) (Water solubility): hs | LogPA- (1-octanol-water partition coefficient) [1]: 1.1* | CMC […] Na+ [2]: 2.2* mM | Albumin Binding (bovine serum albumin [3]): 67* %

CN[C@@H]1C[C@H]2O[C@@](C)([C@@H]1OC)n1c3ccccc3c3c4c(c5c6ccccc6n2c5c31)C(=O)NC4 [Staurosporine, reference compound]
EC50 (HepG2 cell; human): 15 µM

C[C@H](CCC(=O)NCCS(=O)(=O)O)[C@H]1CC[C@H]2[C@@H]3[C@H](O)C[C@@H]4C[C@H](O)CC[C@]4(C)[C@H]3CC[C@]12C [TCDCA]
Ws (water solubility) (Water solubility): hs | LogPA- (1-octanol-water partition coefficient) [1]: 0.9* | CMC […] Na+ [2]: 3.0* mM | Albumin Binding (bovine serum albumin [3]): 70* %

CC1(C)CC[C@]2(C(=O)O)CC[C@]3(C)C(=CC[C@@H]4[C@@]5(C)CC[C@H](O)C(C)(C)[C@@H]5CC[C@]43C)[C@@H]2C1 [OA, oleanolic acid]
food aversion [4]: did not cause food aversion | toxicity ([4]; dose of 100 mg/kg/day): some signs of toxicity | tolerability ([4]; lower dose than 100 mg/kg/day): well tolerated

C[C@H](CCC(=O)O)[C@H]1CC[C@H]2[C@@H]3[C@H](O)C[C@@H]4C[C@H](O)CC[C@]4(C)[C@H]3CC[C@]12C [CDCA, chenodeoxycholic acid]
LXRα EC50 (LXRα): No | EC50 (CAR): > 250 µM | VDR EC50 (VDR): No | Albumin Binding (bovine serum albumin [5]): 93% | half-life time (Intestinal Bacteria): almost one hour | PPARδ EC50 (PPARδ): No | CMC […] Na+ [6]: 3.2 mM | STCMC (surface tension at CMC) [6]: 45.5 Dyne/cm | LogPA- (1-octanol-water partition coefficient) [7]: 2.2

C[C@H](CCC(=O)O)[C@H]1CC[C@H]2[C@@H]3[C@@H](O)C[C@@H]4C[C@H](O)CC[C@]4(C)[C@H]3CC[C@]12C [UDCA, reference compound]
EC50 (HepG2 cell): > 1000 µM | LXRα EC50 (LXRα): No | Ws (water solubility) (Water solubility): 7.5 µM | EC50 (CAR; [8]): > 250 µM | VDR EC50 (VDR): No | Albumin Binding (bovine serum albumin [5]): 94% | PPARδ EC50 (PPARδ): No | CMC […] Na+ [6]: 6.0 mM | STCMC (surface tension at CMC) [6]: 50.5 Dyne/cm | LogPA- (1-octanol-water partition coefficient) [7]: 2.2

C[C@H](CCC(=O)O)[C@H]1CC[C@H]2[C@@H]3CC[C@@H]4C[C@H](O)CC[C@]4(C)[C@H]3CC[C@]12C [LCA, lithocholic acid]
LXRα EC50 (LXRα): No | CAR EC50 (CAR; [8]): No | PPARδ EC50 (PPARδ): No
